Assay results as given in the NIST ThermoML archive (doi:10.1021/je020140j).
Numbers after ± are expanded uncertainties.

Columns and labels:
[1] = 101 kPa, Liquid
[2] = molar heat capacity at constant pressure; conditions: 101 kPa, Liquid, Small sample (50 mg) DSC
[3] = xn = mol fraction of the nth substance listed; conditions: 101 kPa, Liquid, x2 = 0
[4] = molar heat capacity at constant pressure; xn = mol fraction of the nth substance listed; conditions: 101 kPa, Liquid, Small sample (50 mg) DSC, x2 = 0

SMILES: OCCO [1,2-ethanediol]
- mass density ([1]; 293.15 K): 1113.7 ± 4.3 kg/m3
- viscosity ([1]; 293.15 K): 20.83 ± 0.27 mPa·s
- viscosity ([1]; 303.15 K): 13.65 ± 0.18 mPa·s
- mass density ([1]; 313.15 K): 1093.6 ± 4.9 kg/m3
- viscosity ([1]; 313.15 K): 9.443 ± 0.13 mPa·s
- mass density ([1]; 323.15 K): 1084.7 ± 5.3 kg/m3
- viscosity ([1]; 323.15 K): 6.992 ± 0.11 mPa·s
- mass density ([1]; 333.15 K): 1076.4 ± 5.6 kg/m3
- viscosity ([1]; 333.15 K): 5.06 ± 0.082 mPa·s
- mass density ([1]; 343.15 K): 1067.5 ± 5.9 kg/m3
- viscosity ([1]; 343.15 K): 3.987 ± 0.066 mPa·s
- mass density ([1]; 353.15 K): 1060 ± 6.3 kg/m3
- viscosity ([1]; 353.15 K): 3.021 ± 0.051 mPa·s
- molar heat capacity at constant pressure ([2]; 293.15 K): 147.47 ± 3.6 J/K/mol
- molar heat capacity at constant pressure ([2]; 303.15 K): 149.71 ± 3.7 J/K/mol
- molar heat capacity at constant pressure ([2]; 313.15 K): 152 ± 3.7 J/K/mol
- molar heat capacity at constant pressure ([2]; 323.15 K): 153.8 ± 3.8 J/K/mol
- molar heat capacity at constant pressure ([2]; 333.15 K): 156.22 ± 3.8 J/K/mol
- molar heat capacity at constant pressure ([2]; 343.15 K): 159.7 ± 3.9 J/K/mol
- molar heat capacity at constant pressure ([2]; 353.15 K): 161 ± 4 J/K/mol
- molar heat capacity at constant pressure ([2]; 363.15 K): 164.98 ± 4 J/K/mol
- molar heat capacity at constant pressure ([2]; 373.15 K): 168.45 ± 4.1 J/K/mol

SMILES: O [water] + OCCO
- viscosity ([3]; 293.15 K): 1.002 ± 0.019 mPa·s
- viscosity ([3]; 303.15 K): 0.797 ± 0.015 mPa·s
- viscosity ([3]; 313.15 K): 0.653 ± 0.013 mPa·s
- viscosity ([3]; 323.15 K): 0.547 ± 0.012 mPa·s
- mass density ([3]; 333.15 K): 983.2 ± 5.1 kg/m3
- viscosity ([3]; 333.15 K): 0.467 ± 0.011 mPa·s
- mass density ([3]; 343.15 K): 977.8 ± 5.5 kg/m3
- viscosity ([3]; 343.15 K): 0.405 ± 0.01 mPa·s
- mass density ([3]; 353.15 K): 971.8 ± 5.8 kg/m3
- viscosity ([3]; 353.15 K): 0.356 ± 0.01 mPa·s
- molar heat capacity at constant pressure ([4]; 293.15 K): 75.29 ± 1.8 J/K/mol
- molar heat capacity at constant pressure ([4]; 303.15 K): 75.38 ± 1.8 J/K/mol
- molar heat capacity at constant pressure ([4]; 313.15 K): 75.21 ± 1.8 J/K/mol
- molar heat capacity at constant pressure ([4]; 323.15 K): 75.23 ± 1.8 J/K/mol
- molar heat capacity at constant pressure ([4]; 333.15 K): 75.21 ± 1.8 J/K/mol
- molar heat capacity at constant pressure ([4]; 343.15 K): 75.32 ± 1.8 J/K/mol
- molar heat capacity at constant pressure ([4]; 353.15 K): 75.48 ± 1.9 J/K/mol
